According to US7514438B2, “Melanin concentrating hormone receptor antagonist” (Amgen, Inc., priority 2003, dated 2009):
Where two headings read alike, the source gives them in different places.

How the values were obtained:
[1] = target: T1, human MCH 1 receptor (hMCH1R) (Homo sapiens, UniProt Q99705); assay: 125I-MCH ligand binding assay, hMCH; conditions: HEK 293 membranes, 0.2 nM 125I native-MCH; 100 μM or less list; read-out: IC50 in the hMCH binding assay
T1 construct: expressed in transfected cells; host or cells: HEK 293 (membranes)
Method: (§1) Human embryonic kidney cells (293 total) expressing either human, rat, or mouse MCH receptor were harvested from 150 mm culture dishes using PBS. Spinning at 1500 rpm for 2 minutes initially pelleted cells. The resulting pellet was then homogenized in 15 mL ice cold sucrose buffer (25 mM HEPES, 0.3 M sucrose, pH 7.4) with a motorized, glass fitted, Teflon® homogenizer. The homogenate was centrifuged at 48,000×g at 4° C. for 10 minutes, resuspended in 15 mL assay buffer (25 mM HEPES, 10 mM mgCl2, 0.2% BSA, 0.1 mg/mL STI, 0.1 mg/mL Pefabloc®, 1 μM Phosphoramidon, pH 7.4) with a Tissue-Tearor® (Biospec Products) and centrifuged again at 48,000×g for 10 minutes. The pellet was homogenized for a third time in 15 mL assay buffer using the Tissue-Tearor® and again centrifuged at 48,000×g for 10 minutes. The resulting pellet was resuspended in assay buffer at a wet weight concentration of 10-20 mg/mL.
(§2) Binding assays were determined as described below using mouse, rat or human MCH 1 receptors (mMCH1R, rMCH1R, and hMCH1R, respectively) expressed in HEK 293; IC50 values were calculated.
(§3) Binding assays were performed in 96-well U-bottom plates. Membranes (100 μg tissue) were incubated at 30° C. for 90 minutes in assay buffer with various peptides in the presence of 0.2 nM ^125I native-MCH (Perkin-Elmer Life Sciences, Boston, Mass.) in 100 μL total volume. Non-specific binding was assessed in the presence of 1 μM cold native-MCH. The reaction was terminated by rapid filtration through Unfilter-96 GF/C glass fiber filter plates (FilterMate® 196 Harvester, Packard Instrument Co., Meriden, Conn.) pre-soaked in PBS/0.5% BSA, followed by three washes with 300 μL ice-cold water. Bound radioactivity was determined using a TopCount® microplate scintillation and luminescence counter (Packard Instrument Co., Meriden, Conn.). Nonlinear regression analyses of drug concentration curves were performed using GraphPad Prism® (GraphPad Software, Inc., San Diego, Calif.).

[2] = target: T2, rat MCH 1 receptor (rMCH1R) (Rattus norvegicus, UniProt P97639); assay: 125I-MCH ligand binding assay, rMCH; conditions: HEK 293 membranes, 0.2 nM 125I native-MCH, read-out: IC50 in the rMCH binding assay
T2 construct: expressed in transfected cells; host or cells: HEK 293 (membranes)
Method: as §1, §2, §3

T2 sequence (P97639 whole entry): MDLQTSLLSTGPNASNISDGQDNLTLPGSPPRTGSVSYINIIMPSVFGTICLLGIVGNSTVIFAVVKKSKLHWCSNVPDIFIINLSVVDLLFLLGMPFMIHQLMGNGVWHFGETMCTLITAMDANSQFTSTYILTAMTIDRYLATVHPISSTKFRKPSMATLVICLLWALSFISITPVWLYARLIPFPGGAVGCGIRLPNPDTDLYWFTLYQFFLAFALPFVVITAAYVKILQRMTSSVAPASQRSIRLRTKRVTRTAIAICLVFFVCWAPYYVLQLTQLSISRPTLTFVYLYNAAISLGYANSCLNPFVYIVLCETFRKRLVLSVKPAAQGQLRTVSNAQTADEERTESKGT
T1 sequence (Q99705 whole entry): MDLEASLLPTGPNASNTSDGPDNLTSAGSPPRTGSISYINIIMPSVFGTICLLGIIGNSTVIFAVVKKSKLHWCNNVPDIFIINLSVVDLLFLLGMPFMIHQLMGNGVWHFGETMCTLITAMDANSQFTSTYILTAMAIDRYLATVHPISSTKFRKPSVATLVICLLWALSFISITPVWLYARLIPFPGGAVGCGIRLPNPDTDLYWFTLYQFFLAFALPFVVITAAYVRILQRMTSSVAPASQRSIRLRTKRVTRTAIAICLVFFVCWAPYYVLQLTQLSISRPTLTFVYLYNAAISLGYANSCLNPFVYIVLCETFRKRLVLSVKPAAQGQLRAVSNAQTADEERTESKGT

Compound | IC50 [1] | IC50 ([2]; 100 μM or less list) | IC50 ([2]; 100 nM or less list)
COC(=O)Cn1nnnc1[C@H](c1ccccc1)N1CCN(C/C=C/c2ccccc2)CC1 (racemic) [Compound 16, (5-{phenyl-[4-(3-phenylallyl)piperazin-1-yl]methyl}tetrazol-1-yl)acetic acid methyl ester] | ≤ 100 µM |  | 
CC(C)(C)OC(=O)Cn1nnnc1[C@H](c1ccccc1)N1CCN(C/C=C/c2ccccc2)CC1 (racemic) [Compound 24, (5-{phenyl-[4-(3-phenylallyl)piperazin-1-yl]methyl}tetrazol-1-yl)acetic acid tert-butyl ester] |  | ≤ 100 µM | 
C(=C\c1ccccc1)/CN1CCN([C@@H](c2ccccc2)c2nnnn2CCC(c2ccccc2)c2ccccc2)CC1 (racemic) [Compound 27, 1-{[1-(3,3-diphenylpropyl)-1H-tetrazol-5-yl]phenylmethyl}-4-(3-phenylallyl)piperazine] |  | ≤ 100 µM | 
C(=C\c1ccccc1)/CN1CCN([C@@H](c2ccccc2)c2nnnn2C2CCN(Cc3ccccc3)CC2)CC1 (racemic) [Compound 28, 1-{[1-(1-benzylpiperidin-4-yl)-1H-tetrazol-5-yl]phenylmethyl}-4-(3-phenylallyl)piperazine] |  | ≤ 100 µM | 
Cc1cccc(C)c1-n1nnnc1[C@H](c1ccccn1)N1CCN(C/C=C/c2ccccc2)CC1 (racemic) [Compound 75, 1-{[1-(2,6-dimethylphenyl)-1H-tetrazol-5-yl]pyridin-2-ylmethyl}-4-(3-phenylallyl)piperazine] |  | ≤ 100 µM | 
COc1ccc([C@@H](c2nnnn2-c2c(C)cccc2C)N2CCN(C/C=C/c3ccccc3)CC2)cc1 (racemic) [Compound 122, 1-[[1-(2,6-dimethylphenyl)-1H-tetrazol-5-yl]-(4-methoxyphenyl)methyl]-4-(3-phenylallyl)piperazine] |  | ≤ 100 µM | 
Cc1ccc([C@@H](c2nnnn2-c2c(C)cccc2C)N2CCN(C/C=C/c3ccccc3)CC2)cc1C (racemic) [Compound 123, 1-{(3,4-dimethylphenyl)-[1-(2,6-dimethylphenyl)-1H-tetrazol-5-yl]methyl}-4-(3-phenylallyl)piperazine] |  | ≤ 100 µM | 
Cc1cccc(C)c1-n1nnnc1[C@H](c1ccc(F)c(F)c1)N1CCN(C/C=C/c2ccccc2)CC1 (racemic) [Compound 124, 1-{(3,4-difluoraphenyl)-[1-(2,6-dimethylphenyl)-1H-tetrazol-5-yl]methyl}-4-(3-phenylallyl)piperazine] |  | ≤ 100 µM | 
Cc1cccc(C)c1-n1nnnc1[C@H](c1ccc(C(C)C)cc1)N1CCN(C/C=C/c2ccccc2)CC1 (racemic) [Compound 125, 1-[[1-(2,6-dimethylphenyl)-1H-tetrazol-5-yl]-(4-isopropylphenyl)methyl}-4-(3-phenylallyl)piperazine] |  | ≤ 100 µM | 
CSc1ccc([C@@H](c2nnnn2-c2c(C)cccc2C)N2CCN(C/C=C/c3ccccc3)CC2)cc1 (racemic) [Compound 126, 1-[[1-(2,6-dimethylphenyl)-1H-tetrazol-5-yl]-(4-methylsulfanylphenyl)methyl]-4-(3-phenylallyl)piperazine] |  | ≤ 100 µM | 
CCc1ccc([C@@H](c2nnnn2-c2c(C)cccc2C)N2CCN(C/C=C/c3ccccc3)CC2)cc1 (racemic) [Compound 127, 1-[[1-(2,6-dimethylphenyl)-1H-tetrazol-5-yl]-(4-ethylphenyl)methyl]-4-(3-phenylallyl)piperazine] |  | ≤ 100 µM | 
COc1ccc([C@@H](c2nnnn2-c2c(C)cccc2C)N2CCN(C/C=C/c3ccccc3)CC2)cc1OC (racemic) [Compound 128, 1-{(3,4-dimethoxyphenyl)-[1-(2,6-dimethylphenyl)-1H-tetrazol-5-yl]methyl}-4-(3-phenylallyl)piperazine] |  | ≤ 100 µM | 
COc1cc([C@@H](c2nnnn2-c2c(C)cccc2C)N2CCN(C/C=C/c3ccccc3)CC2)ccc1OCc1ccccc1 (racemic) [Compound 129, 1-{(4-benzyloxy-3-methoxyphenyl)-[1-(2,6-dimethylphenyl)-1H-tetrazol-5-yl]methyl}-4-(3-phenylallyl)piperazine] |  | ≤ 100 µM | ≤ 0.1 µM
Cc1cccc(C)c1-n1nnnc1[C@H](c1ccc(CC(C)C)cc1)N1CCN(C/C=C/c2ccccc2)CC1 (racemic) [Compound 130, 1-[[1-(2,6-dimethylphenyl)-1H-tetrazol-5-yl]-(4-isobutylphenyl)methyl]-4-(3-phenylallyl)piperazine] |  | ≤ 100 µM | 
CC(=O)Nc1ccc([C@@H](c2nnnn2-c2c(C)cccc2C)N2CCN(C/C=C/c3ccccc3)CC2)cc1 (racemic) [Compound 131, n-(4-{[1-(2,6-dimethylphenyl)-1H-tetrazol-5-yl]-[4-(3-phenylallyl)piperazin-1-yl]methyl}phenyl)acetamide] |  | ≤ 100 µM | 
CCOc1ccc([C@@H](c2nnnn2-c2c(C)cccc2C)N2CCN(C/C=C/c3ccccc3)CC2)cc1 (racemic) [Compound 136, 1-[[1-(2,6-dimethylphenyl)-1H-tetrazol-5-yl]-(4-ethoxyphenyl)methyl]-4-(3-phenylallyl)piperazine] |  | ≤ 100 µM | ≤ 0.1 µM
Cc1cccc(C)c1-n1nnnc1[C@H](c1cc(Cl)cc(Cl)c1)N1CCN(C/C=C/c2ccccc2)CC1 (racemic) [Compound 137, 1-{(3,5-dichlorophenyl)-[1-(2,6-dimethylphenyl)-1H-tetrazol-5-yl]methyl}-4-(3-phenylallyl)piperazine] |  | ≤ 100 µM | ≤ 0.1 µM
Cc1cccc(C)c1-n1nnnc1[C@H](c1cccc([N+](=O)[O-])c1)N1CCN(C/C=C/c2ccccc2)CC1 (racemic) [Compound 138, 1-[[1-(2,6-dimethylphenyl)-1H-tetrazol-5-yl]-(3-nitrophenyl)methyl]-4-(3-phenylallyl)piperazine] |  | ≤ 100 µM | ≤ 0.1 µM
Cc1cccc(C)c1-n1nnnc1[C@H](c1cccc(Br)c1)N1CCN(C/C=C/c2ccccc2)CC1 (racemic) [Compound 139, 1-{(3-bromophenyl)-[1-(2,6-dimethylphenyl)-1H-tetrazol-5-yl]methyl}-4-(3-phenylallyl)piperazine] |  | ≤ 100 µM | ≤ 0.1 µM
Cc1cccc(C)c1-n1nnnc1[C@H](c1cccc(Cl)c1)N1CCN(C/C=C/c2ccccc2)CC1 (racemic) [Compound 140, 1-{(3-chlorophenyl)-[1-(2,6-dimethylphenyl)-1H-tetrazol-5-yl]methyl}-4-(3-phenylallyl)piperazine] |  | ≤ 100 µM | ≤ 0.1 µM
Cc1cccc(C)c1-n1nnnc1C(c1cccc(C(F)(F)F)c1)N1CCN(CCCc2ccccc2)CC1 (racemic) [Compound 154, 1-[[1-(2,6-dimethylphenyl)-1H-tetrazol-5-yl]-(3-trifluoromethylphenyl)methyl]-4-(3-phenylpropyl)piperazine] |  | ≤ 100 µM | 
Cc1cccc(C)c1-n1nnnc1[C@H](c1cccc(C(F)(F)F)c1)N1CCN(Cc2ccc3c(c2)OCO3)CC1 (racemic) [Compound 156, 1-benzo[1,3]dioxol-5-ylmethyl-4-[[1-(2,6-dimethylphenyl)-1H-tetrazol-5-yl]-(3-trifluoromethylphenyl)methyl]piperazine] |  | ≤ 100 µM | 
CCN([C@@H]1CCN(Cc2ccccc2)C1)[C@@H](c1cccc(C(F)(F)F)c1)c1nnnn1-c1c(C)cccc1C (racemic) [Compound 162, (1-benzylpyrrolidin-3-yl)-[[1-(2,6-dimethylphenyl)-1H-tetrazol-5-yl]-(3-trifluoromethylphenyl)methyl]ethylamine] |  | ≤ 100 µM | 
COc1cc(/C=C/CN2CCN([C@@H](c3cccc(C(F)(F)F)c3)c3nnnn3-c3c(C)cccc3C)CC2)ccc1O (racemic) [Compound 163, 4-(3-{4-[[1-(2,6-dimethylphenyl)-1H-tetrazol-5-yl]-(3-trifluoromethylphenyl)methyl]piperazin-1-yl}propenyl)-2-methoxyphenol] |  | ≤ 100 µM | ≤ 0.1 µM
Cc1cccc(C)c1-n1nnnc1C1(N2CCN(C/C=C/c3ccccc3)CC2)CCN(C)CC1 [Compound 99, 1-{4-[1-(2,6-dimethylphenyl)-1H-tetrazol-5-yl]-1-methylpiperidin-4-yl}-4-(3-phenylallyl)piperazine] |  | ≤ 100 µM | 
Cc1cccc(C)c1-n1nnnc1[C@H](c1ccc(Cl)cc1)N1CCN(C/C=C/c2ccccc2)CC1 [Compound 118, 1-{(4-chiorophenyl)-[1-(2,6-dimethylphenyl)-1H-tetrazol-5-yl]methyl}-4-(3-phenylallyl)piperazine] |  | ≤ 100 µM | 
